This passage reports T/C results from PubChem BioAssay AID248 (DTP/NCI, 2004).

This assay deals with L1210 leukemia ip in BDF1 mice, survival T/C. Put plainly: NCI In Vivo Anticancer Drug Screen. Data for tumor model L1210 Leukemia (intraperitoneal) in B6D2F1 (BDF1) mice. Particulars: endpoint: mean survival time, higher = longer survival. Put shortly: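 Read-out is survival time, reported as the treated-group measurement over the vehicle-control measurement.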
[1] abbreviates: dose: 100.0 mg/kg/injection, schedule: Q04DX003 (ip), vehicle: saline with Tween-80.
The mark [2] stands for this setting: dose: 200.0 mg/kg/injection, schedule: Q04DX003 (ip), vehicle: saline with Tween-80.
The mark [3] stands for this setting: dose: 400.0 mg/kg/injection, schedule: Q04DX003 (ip), vehicle: saline with Tween-80.

The structures appear in SMILES notation. Where “and” joins values, the source holds several entries; their conditions need not be identical. Equal values may be shown once. Toxic doses and inconclusive results are not listed. Peptide text beside a SMILES is read from it.

With `CCOC(OCC)C(=O)C(C#N)c1ccc(Cl)c(Cl)c1` (stereo not drawn), the T/C reads like this: (dose: 5.0 mg/kg/injection, schedule: Q01DX001 (ip), vehicle: saline) 109 % of control; (dose: 10.0 mg/kg/injection, schedule: Q01DX001 (ip), vehicle: saline) 100 % of control; (dose: 20.0 mg/kg/injection, schedule: Q01DX001 (ip), vehicle: saline) 105 % of control; (dose: 40.0 mg/kg/injection, schedule: Q01DX001 (ip), vehicle: saline) 97 % of control; (dose: 80.0 mg/kg/injection, schedule: Q01DX001 (ip), vehicle: saline) 97 % of control.

Consider `C1COB(OCCNCCOB2OCCNCCO2)OCCN1`, for which the T/C is, setting by setting: (dose: 100.0 mg/kg/injection, schedule: Q01DX009 (ip), vehicle: carboxymethylcellulose (CMC)) 100 % of control; (dose: 100.0 mg/kg/injection, schedule: Q04DX002 (ip), vehicle: carboxymethylcellulose (CMC)) 98 % of control and 101 % of control; (dose: 100.0 mg/kg/injection, schedule: Q04DX003 (ip), vehicle: carboxymethylcellulose (CMC)) 100 % of control; (dose: 200.0 mg/kg/injection, schedule: Q01DX009 (ip), vehicle: carboxymethylcellulose (CMC)) 97 % of control and 106 % of control; (dose: 200.0 mg/kg/injection, schedule: Q04DX002 (ip), vehicle: carboxymethylcellulose (CMC)) 95 % of control and 103 % of control; (dose: 200.0 mg/kg/injection, schedule: Q04DX003 (ip), vehicle: carboxymethylcellulose (CMC)) 104 % of control. Further, the T/C (dose: 400.0 mg/kg/injection, schedule: Q01DX009 (ip), vehicle: carboxymethylcellulose (CMC)) is 100 % of control; the T/C (dose: 400.0 mg/kg/injection, schedule: Q04DX002 (ip), vehicle: carboxymethylcellulose (CMC)) is 103 % of control and 106 % of control; the T/C (dose: 400.0 mg/kg/injection, schedule: Q04DX003 (ip), vehicle: carboxymethylcellulose (CMC)) was 100 % of control.

As for `O=S1(=O)C(Cl)=C(Cl)C2C3CC(C(Cl)C3Cl)C21` (stereo not drawn), the T/C is 95 % of control (dose: 50.0 mg/kg/injection, schedule: Q01DX009 (ip), vehicle: acetone); 93 % of control (dose: 100.0 mg/kg/injection, schedule: Q01DX009 (ip), vehicle: acetone); 92 % of control (dose: 100.0 mg/kg/injection, schedule: Q04DX003 (ip), vehicle: acetone); 98 % of control (dose: 200.0 mg/kg/injection, schedule: Q01DX009 (ip), vehicle: acetone); 101 % of control (dose: 200.0 mg/kg/injection, schedule: Q04DX003 (ip), vehicle: acetone); 92 % of control (dose: 400.0 mg/kg/injection, schedule: Q04DX003 (ip), vehicle: acetone).

`O=NSC(c1ccccc1)(c1ccccc1)c1ccccc1`: the T/C (dose: 50.0 mg/kg/injection, schedule: Q01DX009 (ip), vehicle: Klucel (hydroxypropylcellulose) (HPC)) was 94 % of control; the T/C (dose: 100.0 mg/kg/injection, schedule: Q01DX009 (ip), vehicle: Klucel (hydroxypropylcellulose) (HPC)) was 89 % of control; the T/C (dose: 200.0 mg/kg/injection, schedule: Q01DX009 (ip), vehicle: Klucel (hydroxypropylcellulose) (HPC)) was 93 % of control.

As for `CSc1nncc(=O)[nH]1.[Hg]`, the T/C is 91 % of control (dose: 5.0 mg/kg/injection, schedule: Q01DX001 (ip), vehicle: carboxymethylcellulose (CMC)) and 102 % of control (dose: 10.0 mg/kg/injection, schedule: Q01DX001 (ip), vehicle: carboxymethylcellulose (CMC)).

For the molecule `CCCCCOP(=O)(OCCCCC)C(c1ccccc1)c1ccccc1`, the T/C runs as follows: (dose: 100.0 mg/kg/injection, schedule: Q04DX002 (ip), vehicle: saline) 100 % of control; (dose: 200.0 mg/kg/injection, schedule: Q04DX002 (ip), vehicle: saline) 100 % of control; (dose: 400.0 mg/kg/injection, schedule: Q04DX002 (ip), vehicle: saline) 96 % of control.

Consider `CCOc1ccc(C(=O)Nc2c(C)cc(C)cc2C)cc1`, for which the T/C is 96 % of control (dose: 100.0 mg/kg/injection, schedule: Q01DX009 (ip), vehicle: saline with Tween-80); 100 % of control under setting [1]; 96 % of control (dose: 200.0 mg/kg/injection, schedule: Q01DX009 (ip), vehicle: saline with Tween-80); 93 % of control under setting [2]; 101 % of control (dose: 400.0 mg/kg/injection, schedule: Q01DX009 (ip), vehicle: saline with Tween-80); 94 % of control under setting [3].

For the molecule `CC(O)(C(=O)O)C(O)C(O)CO` (stereo not drawn), the T/C was 100 % of control (dose: 100.0 mg/kg/injection, schedule: Q04DX002 (ip), vehicle: saline with Tween-80); 88 % of control (dose: 200.0 mg/kg/injection, schedule: Q04DX002 (ip), vehicle: saline with Tween-80); 100 % of control (dose: 400.0 mg/kg/injection, schedule: Q04DX002 (ip), vehicle: saline with Tween-80).

Consider `CC12CCC3C(CC=C4CC(O)CCC43C)C1C/C(=C\c1ccccc1)C2=O` (stereo not drawn), for which the T/C reads like this: (dose: 100.0 mg/kg/injection, schedule: Q01DX001 (ip), vehicle: saline with Tween-80) 93 % of control; (dose: 200.0 mg/kg/injection, schedule: Q01DX001 (ip), vehicle: saline with Tween-80) 93 % of control; (dose: 400.0 mg/kg/injection, schedule: Q01DX001 (ip), vehicle: saline with Tween-80) 92 % of control.

In the case of `COC(=O)C12Oc3ccc(-c4ccc5c(c4O)C(O)=C4C(=O)CC(C)C(O)C4(C(=O)OC)O5)c(O)c3C(O)=C1C(=O)CC(C)C2O` (stereo not drawn), the T/C runs as follows: (dose: 1.56 mg/kg/injection, schedule: Q01DX009 (ip), vehicle: saline with Tween-80) 104 % of control; (dose: 3.13 mg/kg/injection, schedule: Q01DX009 (ip), vehicle: saline with Tween-80) 100 % of control; (dose: 6.25 mg/kg/injection, schedule: Q01DX009 (ip), vehicle: saline with Tween-80) 105 % of control and 91 % of control; (dose: 12.5 mg/kg/injection, schedule: Q04DX003 (ip), vehicle: saline with Tween-80) 98 % of control; (dose: 25.0 mg/kg/injection, schedule: Q04DX003 (ip), vehicle: saline with Tween-80) 110 % of control; (dose: 50.0 mg/kg/injection, schedule: Q04DX003 (ip), vehicle: saline with Tween-80) 104 % of control.

For `NC(=O)C1C2C=CC(CC2)C1C(N)=O` (stereo not drawn), the T/C under setting [1] is 91 % of control, the T/C under setting [2] is 96 % of control and the T/C under setting [3] is 91 % of control.

For `COC(=O)c1ccccc1N(C)C(=O)c1ccccc1`, the T/C is 102 % of control (dose: 100.0 mg/kg/injection, schedule: Q04DX003 (ip), vehicle: Klucel (hydroxypropylcellulose) (HPC)); 107 % of control (dose: 200.0 mg/kg/injection, schedule: Q04DX003 (ip), vehicle: Klucel (hydroxypropylcellulose) (HPC)); 109 % of control (dose: 400.0 mg/kg/injection, schedule: Q04DX003 (ip), vehicle: Klucel (hydroxypropylcellulose) (HPC)).

Turning to `Oc1ccc(O)c2c1C1(Cl)C(Cl)=C(Cl)C2(Cl)C1(Cl)Cl`, the T/C reads like this: (dose: 100.0 mg/kg/injection, schedule: Q04DX003 (ip), vehicle: other) 101 % of control; (dose: 200.0 mg/kg/injection, schedule: Q04DX003 (ip), vehicle: other) 101 % of control; (dose: 400.0 mg/kg/injection, schedule: Q04DX003 (ip), vehicle: other) 108 % of control.

As to `[Cl][Pt+2][Cl].[NH-]CC1CCCC[N-]1` (stereo not drawn), the T/C runs as follows: (dose: 3.13 mg/kg/injection, schedule: Q04DX003 (ip), vehicle: saline) 111 % of control; (dose: 6.25 mg/kg/injection, schedule: Q04DX003 (ip), vehicle: saline) 108 % of control; (dose: 12.5 mg/kg/injection, schedule: Q04DX003 (ip), vehicle: saline) 122 % of control; (dose: 100.0 mg/kg/injection, schedule: Q04DX003 (ip), vehicle: saline) 163 % of control; (dose: 200.0 mg/kg/injection, schedule: Q04DX003 (ip), vehicle: saline) 120 % of control.

Turning to `C=C(Cl)COC(=S)S`, the T/C is 107 % of control (dose: 100.0 mg/kg/injection, schedule: Q01DX001 (ip), vehicle: saline); 103 % of control (dose: 200.0 mg/kg/injection, schedule: Q01DX001 (ip), vehicle: saline); 100 % of control (dose: 400.0 mg/kg/injection, schedule: Q01DX001 (ip), vehicle: saline).

On to `NC(=O)C(CCCN=C(N)N)NC(=O)CNC(=O)C(N)CO` (stereo not drawn) (H-Ser-Gly-Arg-NH2; configuration not given here), for which the T/C (dose: 25.0 mg/kg/injection, schedule: Q04DX002 (ip), vehicle: Klucel (hydroxypropylcellulose) (HPC)) is 103 % of control; the T/C (dose: 50.0 mg/kg/injection, schedule: Q04DX002 (ip), vehicle: Klucel (hydroxypropylcellulose) (HPC)) was 106 % of control; the T/C (dose: 100.0 mg/kg/injection, schedule: Q04DX002 (ip), vehicle: Klucel (hydroxypropylcellulose) (HPC)) is 100 % of control.

As for `Nc1ccc2cc(S(=O)(=O)O)cc(S(=O)(=O)O)c2c1` (tested in a mixture with another compound), the T/C is, setting by setting: (dose: 80.0 mg/kg/injection, schedule: Q01DX Z (ip), vehicle: saline) 97 % of control; (dose: 170.0 mg/kg/injection, schedule: Q01DX Z (ip), vehicle: saline) 96 % of control.
